Data as given in the NIST ThermoML archive (doi:10.1016/j.tca.2014.03.004).
± gives the expanded uncertainty stated by the source.

Test: mn = molality of the nth substance listed, in mol/kg
Conditions: 101.3 kPa, Liquid; for speed of sound: Sing-around technique in a fixed-path interferometer; for mass density: Vibrating tube method

N[C@@H](Cc1ccc(O)cc1)C(=O)O [3-(p-hydroxyphenyl)-L-alanine] + O
Conditions | mass density, 298.15 K [kg/m3] | mass density, 308.15 K [kg/m3] | mass density, 318.15 K [kg/m3] | speed of sound, 298.15 K [m/s] | speed of sound, 308.15 K [m/s] | speed of sound, 318.15 K [m/s]
m1 = 0.000125 | 997.061 ± 0.11 | 994.051 ± 0.11 | 990.231 ± 0.11 | 1496.6 ± 1.2 | 1519.6 ± 1.2 | 1536.3 ± 1.2
m1 = 0.00025 | 997.068 ± 0.11 | 994.058 ± 0.11 | 990.238 ± 0.11 | 1496.8 ± 1.2 | 1519.7 ± 1.2 | 1536.5 ± 1.2
m1 = 0.0005 | 997.082 ± 0.11 | 994.072 ± 0.11 | 990.251 ± 0.11 | 1496.7 ± 1.2 | 1519.8 ± 1.2 | 1536.3 ± 1.2
m1 = 0.001 | 997.112 ± 0.11 | 994.101 ± 0.11 | 990.278 ± 0.11 | 1497.2 ± 1.2 | 1519.7 ± 1.2 | 1536.8 ± 1.2
m1 = 0.00125 | 997.125 ± 0.11 | 994.114 ± 0.11 | 990.29 ± 0.11 | 1496.8 ± 1.2 | 1520.2 ± 1.2 | 1536.4 ± 1.2
m1 = 0.0015 | 997.138 ± 0.11 | 994.126 ± 0.11 | 990.301 ± 0.11 | 1496.8 ± 1.2 | 1519.8 ± 1.2 | 1536.4 ± 1.2
m1 = 0.002 | 997.168 ± 0.11 | 994.152 ± 0.11 | 990.318 ± 0.11 | 1496.8 ± 1.2 | 1519.8 ± 1.2 | 1536.5 ± 1.2

N[C@@H](CCC(=O)O)C(=O)O [L-glutamic acid] + O
Conditions | mass density, m1 = 0.01 [kg/m3] | mass density, m1 = 0.02 [kg/m3] | mass density, m1 = 0.03 [kg/m3] | mass density, m1 = 0.04 [kg/m3] | mass density, m1 = 0.05 [kg/m3] | speed of sound, m1 = 0.01 [m/s] | speed of sound, m1 = 0.02 [m/s] | speed of sound, m1 = 0.03 [m/s] | speed of sound, m1 = 0.04 [m/s] | speed of sound, m1 = 0.05 [m/s]
298.15 K | 997.642 ± 0.11 | 998.213 ± 0.11 | 998.786 ± 0.11 | 999.352 ± 0.11 | 999.936 ± 0.11 | 1497.4 ± 1.2 | 1498.1 ± 1.2 | 1498.9 ± 1.2 | 1499.6 ± 1.2 | 1500.3 ± 1.2
308.15 K | 994.598 ± 0.11 | 995.178 ± 0.11 | 995.742 ± 0.11 | 996.302 ± 0.11 | 996.73 ± 0.11 | 1520.4 ± 1.2 | 1521 ± 1.2 | 1521.8 ± 1.2 | 1522.3 ± 1.2 | 1523.2 ± 1.2
318.15 K | 990.784 ± 0.11 | 991.318 ± 0.11 | 991.875 ± 0.11 | 992.445 ± 0.11 | 993.001 ± 0.11 | 1537 ± 1.2 | 1537.7 ± 1.2 | 1538.1 ± 1.2 | 1539 ± 1.2 | 1539.3 ± 1.2
